Key:
Assay in all cases: relative viability (nuclei count vs DMSO), 5 days (fraction); higher = more cells survive
OSI-027 + Pictilisib = compound: COc1cccc2cc(-c3nc([C@H]4CC[C@H](C(=O)O)CC4)n4ncnc(N)c34)[nH]c12 [OSI-027] + CS(=O)(=O)N1CCN(Cc2cc3nc(-c4cccc5[nH]ncc45)nc(N4CCOCC4)c3s2)CC1 [Pictilisib] (partner 1 µM)
Procedure, shortened: (§1)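 Relative viability divides the nuclei count in treated wells by that in vehicle wells. Lung cancer cell lines were seeded in 1536-well plates, dosed by pin tool the next day, and fixed and stained after 5 days in one step with final 0.05% Triton X-100, 1% formaldehyde and 1 ug/ml Hoechst. Dosing was a single drug or a fixed anchor-drug dose plus five library-drug doses (not always all listed) in √10 steps, and values are medians of duplicate plates imaged at 4×.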

OSI-027 + Palbociclib = compound: COc1cccc2cc(-c3nc([C@H]4CC[C@H](C(=O)O)CC4)n4ncnc(N)c34)[nH]c12 [OSI-027] + CC(=O)c1c(C)c2cnc(Nc3ccc(N4CCNCC4)cn3)nc2n(C2CCCC2)c1=O [Palbociclib] (partner 0.5 µM)
Procedure, shortened: as §1

Vemurafenib + Phenformin = compound: CCCS(=O)(=O)Nc1ccc(F)c(C(=O)c2c[nH]c3ncc(-c4ccc(Cl)cc4)cc23)c1F [Vemurafenib] + N=C(N)NC(=N)NCCc1ccccc1 [Phenformin] (partner 250 µM)
Procedure, shortened: as §1

Alpelisib + Pemetrexed = compound: Cc1nc(NC(=O)N2CCC[C@H]2C(N)=O)sc1-c1ccnc(C(C)(C)C(F)(F)F)c1 [Alpelisib] + Nc1nc2[nH]cc(CCc3ccc(C(=O)N[C@@H](CCC(=O)O)C(=O)O)cc3)c2c(=O)[nH]1 [Pemetrexed] (partner 0.2 µM)
Procedure, shortened: as §1

Cell Line | relative viability (OSI-027 + Pictilisib; first compound 0.01 µM) | relative viability (OSI-027 + Pictilisib; first compound 0.03162 µM) | relative viability (OSI-027 + Pictilisib; first compound 0.1 µM) | relative viability (OSI-027 + Pictilisib; first compound 0.3162 µM) | relative viability (OSI-027 + Pictilisib; first compound 1 µM) | relative viability (OSI-027 + Palbociclib; first compound 0.01 µM) | relative viability (OSI-027 + Palbociclib; first compound 0.03162 µM) | relative viability (OSI-027 + Palbociclib; first compound 0.1 µM) | relative viability (OSI-027 + Palbociclib; first compound 0.3162 µM) | relative viability (OSI-027 + Palbociclib; first compound 1 µM) | relative viability (Vemurafenib + Phenformin; first compound 0.03162 µM) | relative viability (Vemurafenib + Phenformin; first compound 0.1 µM) | relative viability (Vemurafenib + Phenformin; first compound 0.3162 µM) | relative viability (Vemurafenib + Phenformin; first compound 1 µM) | relative viability (Alpelisib + Pemetrexed; first compound 0.04 µM) | relative viability (Alpelisib + Pemetrexed; first compound 0.1265 µM) | relative viability (Alpelisib + Pemetrexed; first compound 0.4 µM) | relative viability (Alpelisib + Pemetrexed; first compound 1.265 µM) | relative viability (Alpelisib + Pemetrexed; first compound 4 µM)
NCI-H2170 | 0.284 | 0.295 | 0.245 | 0.266 | 0.258 | 0.407 | 0.382 | 0.329 | 0.302 | 0.201 | 0.396 | 0.354 | 0.376 | 0.454 | 0.277 | 0.23 | 0.281 | 0.29 | 0.265
HCC-366 | 0.179 | 0.154 | 0.165 | 0.124 | 0.0569 | 0.465 | 0.348 | 0.412 | 0.309 | 0.1 | 0.61 | 0.565 | 0.247 | 0.593 | 0.175 | 0.232 | 0.296 | 0.342 | 0.254
EKVX | 0.456 | 0.384 | 0.368 | 0.302 | 0.177 | 0.332 | 0.44 | 0.34 | 0.263 | 0.22 | 0.223 |  | 0.223 | 0.213 | 0.411 | 0.406 | 0.461 | 0.341 | 0.349
NCI-H1792 | 0.288 | 0.166 | 0.213 | 0.161 | 0.232 | 0.578 | 0.451 | 0.623 | 0.604 | 0.308 | 0.228 | 0.236 | 0.115 | 0.336 | 0.897 | 0.479 | 0.992 | 0.688 | 0.462
NCI-H1734 | 0.455 | 0.45 | 0.491 | 0.337 | 0.264 | 0.396 | 0.369 | 0.356 | 0.311 | 0.255 | 0.403 | 0.358 | 0.359 | 0.356 | 0.407 | 0.406 | 0.394 | 0.406 | 0.399
CAL-12T | 0.401 | 0.394 | 0.315 | 0.299 | 0.294 | 0.427 | 0.432 | 0.28 | 0.313 | 0.22 | 0.538 | 0.453 | 0.602 | 0.552 | 1.26 | 1.14 | 1.3 | 0.93 | 1.03
NCI-H2347 | 0.559 | 0.589 | 0.411 | 0.324 | 0.313 | 0.41 | 0.386 | 0.392 | 0.358 | 0.392 | 0.33 | 0.38 | 0.463 | 0.234 | 0.459 | 0.418 | 0.442 | 0.425 | 0.405
SK-MES-1 | 0.323 | 0.362 | 0.333 | 0.278 | 0.252 | 0.294 | 0.322 | 0.286 | 0.275 | 0.274 | 0.624 | 0.695 | 0.622 | 0.706 | 0.954 | 0.955 | 1.07 | 0.868 | 0.689
NCI-H3122 | 0.603 | 0.584 | 0.513 | 0.317 | 0.258 | 0.167 | 0.177 | 0.175 | 0.168 | 0.152 | 0.357 | 0.372 | 0.292 | 0.394 | 0.208 | 0.208 | 0.204 | 0.197 | 0.173
NCI-H23 | 0.491 | 0.403 | 0.407 | 0.312 | 0.245 | 0.439 | 0.552 | 0.414 | 0.25 | 0.237 | 0.702 | 0.797 | 0.728 | 0.723 | 0.78 | 0.622 | 0.726 | 0.602 | 0.416
NCI-H2228 | 0.412 | 0.281 | 0.474 |  | 0.249 | 0.65 | 0.638 | 0.849 | 0.75 | 0.383 | 0.376 | 0.298 | 0.302 | 0.267 | 0.35 | 0.228 | 0.39 | 0.272 | 0.319
HCC-15 | 0.768 | 0.771 | 0.68 | 0.596 | 0.367 | 0.689 | 0.67 | 0.717 | 0.591 | 0.402 | 0.441 | 0.497 |  | 0.45 | 0.228 | 0.218 | 0.211 | 0.21 | 0.211
NCI-H358 | 0.334 | 0.333 | 0.273 | 0.267 | 0.284 | 0.134 | 0.139 | 0.125 | 0.103 | 0.127 | 0.282 | 0.19 | 0.448 | 0.455 | 0.196 | 0.163 | 0.145 | 0.143 | 0.145
COR-L23 | 0.834 | 0.877 | 0.668 | 0.459 | 0.171 | 0.304 | 0.3 | 0.295 | 0.255 | 0.171 | 0.38 | 0.464 | 0.334 | 0.435 | 0.188 | 0.184 | 0.215 | 0.2 | 0.196
NCI-H2009 | 0.885 | 0.729 | 0.7 | 0.46 | 0.405 | 0.211 | 0.237 | 0.171 | 0.173 | 0.232 | 0.458 | 0.418 | 0.343 | 0.361 | 0.987 | 1.03 | 1.08 | 1.01 | 0.968
NCI-H1755 | 0.412 | 0.392 | 0.346 | 0.306 | 0.281 | 0.483 | 0.444 | 0.421 | 0.445 | 0.336 | 0.545 | 0.599 | 0.377 | 0.597 | 0.409 | 0.432 | 0.437 | 0.371 | 0.402
LCLC-97TM1 | 0.211 | 0.208 | 0.199 | 0.116 | 0.126 | 0.236 | 0.205 | 0.217 | 0.139 | 0.239 | 0.4 | 0.43 | 0.43 | 0.342 | 0.177 | 0.17 | 0.183 | 0.174 | 0.127
